Patent US12472176B2, “Pharmaceutical compositions comprising (S)-4-(4-(4-(((2-(2,6-dioxopiperidin-3-yl)-1-oxoisoindolin-4-yl)oxy)methyl)benzyl)piperazin-1-yl)-3-fluorobenzonitrile and methods of using the same” (Celgene Corporation, priority 2020, dated 2025)

Experiments:
[1] = Binary drug-excipient compatibility study (open dish); assay type: physicochemical
Protocol: A binary drug-excipient compatibility study was conducted to identify suitable excipients for capsule formulation. Considering the low dose formulation where diluent constitutes majority of the composition, API to diluent ratio was 1:400; for other excipients, the ration was 1:50.
Drug substance and excipients were dispensed at predetermined ratios, mixed using a vortex mixer for 30 seconds, and then dispensed into required number of vials for stability study. These vials (open dish condition) were exposed to 50° C./0% RH and 50° C./75% RH conditions for 2 and 4 weeks respectively. The control samples were stored in a refrigerator at 5° C. Selective samples were tested for chemical degradants and loss of chiral purity (conversion of S-isomer to R-isomer) after 2-weeks.
The following are the major degradation pathways that could be shelf-life limiting: (1) hydrolysis; (2) oxidation; and (3) loss of chiral purity. The total chemical impurities and chiral impurity levels of the samples after stressing for 2-weeks and 4-weeks are compared with the control samples which are shown in FIG. 1A and FIG. 1B, respectively.

[2] = pKa and pHmax of the HBr salt; assay type: physicochemical
[3] = control sample, stored at 5° C.

Compound: Br.N#Cc1ccc(N2CCN(Cc3ccc(COc4cccc5c4CN([C@H]4CCC(=O)NC4=O)C5=O)cc3)CC2)c(F)c1 [Compound 1 HBr]
- chemical impurity level ([1]; 2-weeks exposure at 50° C./75% RH, open dish): 0.35%
- chemical impurity level ([1]; 4-weeks exposure at 50° C./75% RH, open dish): 0.77%
- chiral impurity ([1]; 4 weeks at 50° C./75% RH, open dish): 0.4%
- chemical impurities [1, 3]: 0.2%
- chiral impurity [1, 3]: 0.3%
- change in chemical impurities or chiral impurity ([1]; dry condition (50° C.)): no significant change
- pHmax [2]: 4.62
- pKa [2]: 6.62
